≈ marks a conversion by molar mass, not a printed value. Where two headings read alike, the source gives them in different places.
Experiments:
[1] = Determination of equilibrium solubility in phosphate buffer solution with pH 6.8; format: physicochemical; conditions: pH 6.8 phosphate buffer, mean value of three measurements
Description: (Test Example 1) Determination of Equilibrium Solubility (Determination of Solubility in Phosphate Buffer Solution with pH 6.8)
Each of the equilibrium solubilities (solubility in phosphate buffer solution with pH 6.8) of Type I (Example 2), III (Example 3), V (Example 4) and VI crystals (Example 5) of 1-((1R,2R)-2-hydroxy-4,4-dimethyl-1,2,3,4-tetrahydronaphthalen-1-yl)-3-(5-methyl-6-(2-methylpyrimidin-5-yl)-2-phenylpyridin-3-yl)urea obtained in the above (Example 2) to (Example 5) was determined as follows:
Water was added a weighed potassium dihydrogen phosphate of 2.7 g to make 100 mL volume to prepare 0.2 mol/L potassium dihydrogen phosphate solution. Water was added a weighed disodium hydrogen phosphate […] of 7.2 g to make 100 mL volume to prepare 0.2 mol/L disodium hydrogen phosphate solution. A pH 6.8 phosphate buffer solution was prepared by diluting a mixture of 0.2 mol/L potassium dihydrogen phosphate solution (14.8 mL) and 0.2 mol/L disodium hydrogen phosphate solution (10.0 mL) with water (173.6 mL).
Approximately 1 mg of the each crystal from (Example 2) to (Example 5) was weighed into a screw tube, and a pH 6.8 phosphate buffer solution (1 mL) was added. An isothermal shaker (M-BR-022UP) was used to incubate the sample at 37° C. and 1000 rpm for 24 hours. 100 μL solution were sampled at 1, 2, 6, and 24 hours after the start of incubation, and were filtered using a centrifuge (HITACHI, Himac cF 9RX, at 25° C., at 1500 rpm, for 30 seconds) with a filter (Millipore: Multiscreen, MSSLBPC10) so as to remove insoluble materials. A 20 μL of the filtrate was quantified, and diluted with a solution (180 μL, pH 9.0) of 20 vol % tetrahydrofuran and 80 vol % ammonium bicarbonate aqueous solution (10 mM). A 10 μL of the prepared solution was quantified, and diluted with a solution (190 μL, pH 9.0) of 20 vol % tetrahydrofuran and 80 vol % ammonium bicarbonate aqueous solution (10 mM). The prepared solution was analyzed by ultra performance liquid chromatography (UPLC) under the following measurement conditions, and the concentration of the compound in the solution was calculated based on a previously prepared calibration curve. Three times of measurements were made for each example compound, and the mean values and standard deviations of the three measurements are shown as a result in Table 6.
<UPLC measurement conditions> Equipment: ACQUITY UPLC H-Class (Waters) Detector: PDA (200-500 nm) Column: BEH C18 2.1×50 mm Measurement wavelength: 270 nm Column temperature: 40° C. Injection amount: 10 μL Mobile phase: • Solvent A, acetonitrile; • Solvent B, 10 mM ammonium bicarbonate aqueous solution (pH 9.0) Gradient conditions: […]

Storage stability test = format: physicochemical
Description: For the stability test, approximately 20 mg of the test sample was stored at 25° C./60% RH or at 40° C./75% RH in open or closed condition for 1 month using a small environmental tester SH-641 (manufactured by Espec), and changes in purity and in crystalline form were observed.
For purity measurement, equipment of Waters ACQUITY UPLC H-Class (manufactured by Waters) and column of Waters ACQUITY BEH C18 (particle diameter […], size 2.1×50 mm) are used. For the mobile phase, 10 mmol/L ammonium bicarbonate buffer pH 9.0 and acetonitrile were used; and the test sample solution at 100 μg/mL in the mixture solvent of THF (tetrahydrofuran):10 mmol/L ammonium bicarbonate buffer (20:80) was prepared.
(Test Example 2) Storage Stability Test
The type I (Example 2), III (Example 3), V (Example 4) and VI (Example 5) crystals (each about 20 mg) of 1-((1R,2R)-2-hydroxy-4,4-dimethyl-1,2,3,4-tetrahydronaphthalen-1-yl)-3-(5-methyl-6-(2-methylpyrimidin-5-yl)-2-phenylpyridin-3-yl)urea obtained in the above Examples 2 to 5 were stored in glass bottles under the respective conditions described in Table 7. After completion of the storage period, the retrieved sample was confirmed on the purity by high performance liquid chromatography and on the crystal form by powder X-ray diffraction analysis as in the Examples.

[2] = Photostability test according to ICH Q1B; format: physicochemical
Description: (Test Example 3) Photostability Test
The type I (Example 2), III (Example 3), V (Example 4), and VI (Example 5) crystals (each about 20 mg) of 1-((1R,2R)-2-hydroxy-4,4-dimethyl-1,2,3,4-tetrahydronaphthalen-1-yl)-3-(5-methyl-6-(2-methylpyrimidin-5-yl)-2-phenylpyridin-3-yl)urea obtained in the above Examples 2 to 5 were placed in a transparent plastic container and covered, and were subjected to photostability test according to the ICH Q1B (Guidelines on Photostability Testing of New Active Substances and Medicinal Products) described in Table 8 (Here, the photostability test samples were stored at about 25° C. under separate lamps which respectively emits visible light and UV-A light so that the total light exposure should be 1.2 million lux hours and 200 W hours/m^2 or more, respectively. A 5-day study should be designated as “0.5 ICH” and a 10-day study as “1 ICH”). […] After completion of the test, the retrieved sample was confirmed on the purity by high performance liquid chromatography and on the crystal form by powder X-ray diffraction analysis as in the Examples.

[3] = Pharmacokinetic study, single oral dose in rats; format: in vivo; conditions: male, Crl:CD (SD), rat, plasma, po, 600 mg/kg
Description: (Pharmacology Experiment 5): Pharmacokinetic Study
Plasma sample obtained by centrifugation of blood (12000×g, for 5 minutes, at 4° C.) was measured to determine plasma concentration of the test compound using high performance liquid chromatography/mass spectrometry. Similarly, concentrations of standard solutions containing the test compound at known concentrations (0.001, 0.002, 0.005, 0.01, 0.02, 0.05, 0.1, 0.2, 0.5, 1, 2, and 5 μg/mL) were measured. And then, the plasma concentration (μg/mL) of the compound (1) was calculated from the prepared calibration curve to obtain the maximum plasma concentration (Cmax (μg/mL)) and the area under the plasma concentration-time curve (AUC (μg·hr/mL)). Measurement conditions can be appropriately adjusted by a person skilled in the art.

[4] = 25° C./60% RH, closed for 1 month
[5] = 25° C./60% RH, open for 1 month
[6] = 40° C./75% RH, closed for 1 month
[7] = 40° C./75% RH, open for 1 month
[8] = Shielded from light by aluminum foil, 0.5 ICH
[9] = Shielded from light by aluminum foil, 1 ICH
[10] = Shielded from light by aluminum foil, Before the test

SMILES	Chemical purity (%) (Storage stability test; [4])	Crystalline form after completion of storage period (Storage stability test; [4])	Chemical purity (%) (Storage stability test; [5])	Crystalline form after completion of storage period (Storage stability test; [5])	Chemical purity (%) (Storage stability test; [6])	Crystalline form after completion of storage period (Storage stability test; [6])	Chemical purity (%) (Storage stability test; [7])	Crystalline form after completion of storage period (Storage stability test; [7])	Chemical purity (%) (Storage stability test; Before the test)	Crystalline form after completion of storage period (Storage stability test; Before the test)	Chemical purity (%) ([2]; Exposure, 0.5 ICH (5-day))	Crystalline form after completion of storage period ([2]; Exposure, 0.5 ICH (5-day))	Chemical purity (%) ([2]; Exposure, 1 ICH (10-day))	Crystalline form after completion of storage period ([2]; Exposure, 1 ICH (10-day))	Chemical purity (%) ([2]; Exposure, Before the test)	Crystalline form after completion of storage period ([2]; Exposure, Before the test)	Chemical purity (%) [2, 8]	Crystalline form after completion of storage period [2, 8]	Chemical purity (%) [2, 9]	Crystalline form after completion of storage period [2, 9]	also measured
Cc1ncc(-c2nc(-c3ccccc3)c(NC(=O)N[C@@H]3c4ccccc4C(C)(C)C[C@H]3O)cc2C)cn1 [Example 5, 1-((1R,2R)-2-hydroxy-4,4-dimethyl-1,2,3,4-tetrahydronaphthalen-1-yl)-3-(5-methyl-6-(2-methylpyrimidin-5-yl)-2-phenylpyridin-3-yl)urea]	99.9%	Type VI crystal	99.9%	Type VI crystal	99.9%	Type VI crystal	99.9%	Type VI crystal	99.8%	Type VI crystal	99.7%	Type I crystal	99.5%	Type I crystal	99.8%	Type I crystal	99.8%	Type I crystal	99.8%	Type I crystal	Solubility ([1]; phosphate buffer solution pH 6.8, 37 °C, pH 6.8, aqueous buffer, thermodynamic from solid, read-out: Solubility): 0.0411 mg/mL (≈ 83.3 µM); Crystal form change during storage (Storage stability test; storage (open system)): transferred to the type I crystal; Chemical purity (%) [2, 10]: 99.8%; Crystalline form after completion of storage period [2, 10]: Type VI crystal; Crystal form change during photostability tests ([2]; result in words): transferred to the type I crystal; Stability against light ([2]; result in words, listed as type VI crystal): unstable against light
Cc1ncc(-c2nc(-c3ccccc3)c(NC(=O)N[C@@H]3c4ccccc4C(C)(C)C[C@H]3O)cc2C)cn1 [Example 2, 1-((1R,2R)-2-hydroxy-4,4-dimethyl-1,2,3,4-tetrahydronaphthalen-1-yl)-3-(5-methyl-6-(2-methylpyrimidin-5-yl)-2-phenylpyridin-3-yl)urea]	99.8%	Type I crystal	99.8%	Type I crystal	99.8%	Type I crystal	99.8%	Type I crystal	99.8%	Type I crystal	99.2%	Type I crystal	98.9%	Type I crystal	99.8%	Type I crystal	99.8%	Type I crystal	99.8%	Type I crystal	AUC ([3]; oral single dose 600 mg/kg in 0.5 w/v % methylcellulose 400, read-out: Area Under Plasma Concentration (AUC)): 561 µg·h/mL; Cmax ([3]; oral single dose 600 mg/kg in 0.5 w/v % methylcellulose 400, read-out: Maximum Plasma Concentration (Cmax)): 29.7 µg/mL; Solubility ([1]; 37° C.): 0.0332 mg/mL (≈ 67.3 µM); Moisture absorption (Storage stability test; during the storage period): no moisture absorption was observed; Chemical and physical stability over the test period (Storage stability test; storage for 1 month, result in words): chemically and physically stable; Chemical purity (%) [2, 10]: 99.8%; Crystalline form after completion of storage period [2, 10]: Type I crystal; Stability against light ([2]; result in words, listed as type I crystal): stable against light
